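Briefly, cells in 96-well plates were exposed to five compound concentrations for 48 h, and endpoints were estimated by linear interpolation. GI50 marks 50% less growth. TGI marks complete inhibition of growth.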
Key:
Assay in all cases: NCI-60 cell line screen, 48 h
786-0 renal = system: 786-0 renal
A498 renal = system: A498 renal
A549 NSCLC = system: A549 NSCLC
ACHN renal = system: ACHN renal
BT-549 breast = system: BT-549 breast
CAKI-1 renal = system: CAKI-1 renal
CCRF-CEM leukemia = system: CCRF-CEM leukemia
COLO 205 colon = system: COLO 205 colon
DU-145 prostate = system: DU-145 prostate
EKVX NSCLC = system: EKVX NSCLC
HCC-2998 colon = system: HCC-2998 colon
HCT-116 colon = system: HCT-116 colon
HCT-15 colon = system: HCT-15 colon
HL-60(TB) leukemia = system: HL-60(TB) leukemia
HOP-62 NSCLC = system: HOP-62 NSCLC
HOP-92 NSCLC = system: HOP-92 NSCLC
HS 578T breast = system: HS 578T breast
HT29 colon = system: HT29 colon
IGROV1 ovarian = system: IGROV1 ovarian
K-562 leukemia = system: K-562 leukemia
KM12 colon = system: KM12 colon
LOX IMVI melanoma = system: LOX IMVI melanoma
M14 melanoma = system: M14 melanoma
MALME-3M melanoma = system: MALME-3M melanoma
MCF7 breast = system: MCF7 breast
MDA-MB-231 breast = system: MDA-MB-231 breast
MDA-MB-435 = system: MDA-MB-435
MDA-MB-468 breast = system: MDA-MB-468 breast
MOLT-4 leukemia = system: MOLT-4 leukemia
NCI-H226 lung = system: NCI-H226 lung
NCI-H23 lung = system: NCI-H23 lung
NCI-H460 lung = system: NCI-H460 lung
NCI-H522 lung = system: NCI-H522 lung
NCI/ADR-RES ovarian = system: NCI/ADR-RES ovarian
OVCAR-3 ovarian = system: OVCAR-3 ovarian
OVCAR-4 ovarian = system: OVCAR-4 ovarian
OVCAR-5 ovarian = system: OVCAR-5 ovarian
OVCAR-8 ovarian = system: OVCAR-8 ovarian
PC-3 prostate = system: PC-3 prostate
RPMI-8226 leukemia = system: RPMI-8226 leukemia
RXF 393 renal = system: RXF 393 renal
SF-268 CNS = system: SF-268 CNS
SF-295 CNS = system: SF-295 CNS
SF-539 CNS = system: SF-539 CNS
SK-MEL-2 melanoma = system: SK-MEL-2 melanoma
SK-MEL-28 melanoma = system: SK-MEL-28 melanoma
SK-MEL-5 melanoma = system: SK-MEL-5 melanoma
SK-OV-3 ovarian = system: SK-OV-3 ovarian
SN12C renal = system: SN12C renal
SNB-19 CNS = system: SNB-19 CNS
SNB-75 CNS = system: SNB-75 CNS
SR leukemia = system: SR leukemia
SW-620 colon = system: SW-620 colon
T-47D breast = system: T-47D breast
TK-10 renal = system: TK-10 renal
U251 CNS = system: U251 CNS
UACC-257 melanoma = system: UACC-257 melanoma
UACC-62 melanoma = system: UACC-62 melanoma
UO-31 renal = system: UO-31 renal

Q: What does the source list for `CCN(CC)CCOc1ccc(C(=C(C)c2ccccc2)c2ccc(OCCN(CC)CC)cc2)cc1`?
A: GI50 (786-0 renal): 2.98 µM; TGI (786-0 renal): 6.77 µM; GI50 (A498 renal): 2.73 µM; TGI (A498 renal): 5.62 µM; GI50 (A549 NSCLC): 4.54 µM; TGI (A549 NSCLC): 13.3 µM; GI50 (ACHN renal): 3.63 µM; TGI (ACHN renal): 6.97 µM; GI50 (BT-549 breast): 4.46 µM; TGI (BT-549 breast): 8.15 µM; GI50 (CAKI-1 renal): 3.42 µM; TGI (CAKI-1 renal): 7.07 µM; GI50 (CCRF-CEM leukemia): 2.37 µM; TGI (CCRF-CEM leukemia): 6.61 µM; GI50 (COLO 205 colon): 3.36 µM; TGI (COLO 205 colon): 6.89 µM; GI50 (DU-145 prostate): 6 µM; TGI (DU-145 prostate): > 23 µM; GI50 (EKVX NSCLC): 5.71 µM; TGI (EKVX NSCLC): > 23 µM; GI50 (HCC-2998 colon): 2.91 µM; TGI (HCC-2998 colon): 6.14 µM; GI50 (HCT-116 colon): 2.39 µM; TGI (HCT-116 colon): 7.09 µM; GI50 (HCT-15 colon): 2.6 µM; TGI (HCT-15 colon): 6.85 µM; GI50 (HL-60(TB) leukemia): 4.36 µM; TGI (HL-60(TB) leukemia): 22.1 µM; GI50 (HOP-62 NSCLC): 3.54 µM; TGI (HOP-62 NSCLC): 7.31 µM; GI50 (HOP-92 NSCLC): 1.76 µM; TGI (HOP-92 NSCLC): 6.5 µM; GI50 (HS 578T breast): 4.08 µM; TGI (HS 578T breast): 10.2 µM; GI50 (HT29 colon): 1.17 µM; TGI (HT29 colon): 5.6 µM; GI50 (IGROV1 ovarian): 4.27 µM; TGI (IGROV1 ovarian): 9.79 µM; GI50 (K-562 leukemia): 0.968 µM; TGI (K-562 leukemia): > 23 µM; GI50 (KM12 colon): 3.47 µM; TGI (KM12 colon): 7.22 µM; GI50 (LOX IMVI melanoma): 3.14 µM; TGI (LOX IMVI melanoma): 6.25 µM; GI50 (M14 melanoma): 3.34 µM; TGI (M14 melanoma): 7.71 µM; GI50 (MALME-3M melanoma): 3.61 µM; TGI (MALME-3M melanoma): 6.73 µM; GI50 (MCF7 breast): 0.75 µM; TGI (MCF7 breast): 4.18 µM; GI50 (MDA-MB-231 breast): 3.04 µM; TGI (MDA-MB-231 breast): 6.14 µM; GI50 (MDA-MB-435): 3.02 µM; TGI (MDA-MB-435): 6.48 µM; GI50 (MDA-MB-468 breast): 1.84 µM; TGI (MDA-MB-468 breast): 5.04 µM; GI50 (MOLT-4 leukemia): 4.71 µM; TGI (MOLT-4 leukemia): 14.8 µM; GI50 (NCI-H226 lung): 5.92 µM; TGI (NCI-H226 lung): > 23 µM; GI50 (NCI-H23 lung): 4.27 µM; TGI (NCI-H23 lung): 10.7 µM; GI50 (NCI-H460 lung): 3.57 µM; TGI (NCI-H460 lung): 6.96 µM; GI50 (NCI-H522 lung): 3.63 µM; TGI (NCI-H522 lung): 7.85 µM; GI50 (NCI/ADR-RES ovarian): 4.71 µM; TGI (NCI/ADR-RES ovarian): 13.9 µM; GI50 (OVCAR-3 ovarian): 2.96 µM; TGI (OVCAR-3 ovarian): 7.11 µM; GI50 (OVCAR-4 ovarian): 4.56 µM; TGI (OVCAR-4 ovarian): 11.7 µM; GI50 (OVCAR-5 ovarian): 3.45 µM; TGI (OVCAR-5 ovarian): 7.76 µM; GI50 (OVCAR-8 ovarian): 6.12 µM; TGI (OVCAR-8 ovarian): 18.1 µM; GI50 (PC-3 prostate): 3.59 µM; TGI (PC-3 prostate): 8.25 µM; GI50 (RPMI-8226 leukemia): 3.51 µM; TGI (RPMI-8226 leukemia): 8.8 µM; GI50 (RXF 393 renal): 2.47 µM; TGI (RXF 393 renal): 6.46 µM; GI50 (SF-268 CNS): 3.47 µM; TGI (SF-268 CNS): 8.81 µM; GI50 (SF-295 CNS): 3.58 µM; TGI (SF-295 CNS): 7.26 µM; GI50 (SF-539 CNS): 3.35 µM; TGI (SF-539 CNS): 6.4 µM; GI50 (SK-MEL-2 melanoma): 4.13 µM; TGI (SK-MEL-2 melanoma): 7.85 µM; GI50 (SK-MEL-28 melanoma): 3.52 µM; TGI (SK-MEL-28 melanoma): 6.65 µM; GI50 (SK-MEL-5 melanoma): 3.57 µM; TGI (SK-MEL-5 melanoma): 6.78 µM; GI50 (SK-OV-3 ovarian): 3.69 µM; TGI (SK-OV-3 ovarian): 7.16 µM; GI50 (SN12C renal): 3.52 µM; TGI (SN12C renal): 7.22 µM; GI50 (SNB-19 CNS): 4.29 µM; TGI (SNB-19 CNS): 8.7 µM; GI50 (SNB-75 CNS): 3.07 µM; TGI (SNB-75 CNS): 6.98 µM; GI50 (SR leukemia): 2.44 µM; TGI (SR leukemia): > 23 µM; GI50 (SW-620 colon): 3.1 µM; TGI (SW-620 colon): 6.31 µM; GI50 (T-47D breast): 2.66 µM; TGI (T-47D breast): 5.98 µM; GI50 (TK-10 renal): 3.17 µM; TGI (TK-10 renal): 6.66 µM; GI50 (U251 CNS): 3.69 µM; TGI (U251 CNS): 7.44 µM; GI50 (UACC-257 melanoma): 4.25 µM; TGI (UACC-257 melanoma): 8.08 µM; GI50 (UACC-62 melanoma): 3.89 µM; TGI (UACC-62 melanoma): 7.12 µM; GI50 (UO-31 renal): 2.99 µM; TGI (UO-31 renal): 5.97 µM
